# Experimental data as given in patent US9879008B2, “2,3,4,6-tetra-substituted benzene-1,5-diamine derivatives, preparation method therefor and medicinal use thereof” (SHANGHAI HAIYAN PHARMACEUTICAL TECHNOLOGY CO., LTD., priority 2014, dated 2018).
# Like-named read-outs stand apart in the source and are kept apart here.
# What was measured:
# [1] = system: H1975 cell; experiment: MTT cytostatic activity, H1975 cell; type: cell-based; conditions: for IC50: Homo sapiens, read-out: H1975 cell (IC50/nM); for Selective inhibitory activity against cells [IC50(A431 cell)/IC50(H1975 cell)]: ratio of cell IC50 values;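 as to all read-outs here: cells in 96-well plates exposed to compound for 72 h, then given MTT for a further 4 h at 37 °C under 5% CO2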
# [2] = system: NIH3T3 cell; experiment: MTT cytotoxicity against NIH3T3 cells; type: cell-based; conditions: Mus musculus, read-out: MTT assay against NIH3T3 cell (IC50/nM)
# [3] = molecular target: T1, wild-type EGFR kinase (Homo sapiens, UniProt P00533); experiment: z-lyte inhibition test against wild-type EGFR kinase; type: biochemical; conditions: 10 μM ATP, read-out: EGFR WT (IC50/nM);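 also: reaction volume 10 µL holding 0.8 ng/µL enzyme and 2 µM Tyr04 substrate, with DMSO at 2% once compounds are present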
# T1 construct: purchased Invitrogen PV3872
# [4] = system: A431 cell; experiment: MTT cytostatic activity, A431 cell; type: cell-based; conditions: Homo sapiens, A-431; MTT, 72 h; read-out: A431 cell (IC50/nM)
# [5] = system: A431 cells; experiment: ELISA assay for cell activity, EGF-treated A431 cells; type: cell-based; conditions: Homo sapiens, A-431, compound 1 h, then EGF 45 min;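 also: Serum-starved A431 cells, ELISA on lysates read as OD450 minus OD570, inhibition scaled between EGF-stimulated wells (0%) and unstimulated cell control (100%), DMSO 0.5% final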
# [6] = system: H1975 cells; experiment: ELISA assay for cell activity of EGFR T790M inhibitor, H1975 cells; conditions: for Selective inhibitory activities against cell [IC50(A431 cell)/IC50(H1975 cell)]: ELISA, ratio of cell IC50 values; for IC50: Homo sapiens, NCI-H1975, 1 h, read-out: H1975 cell (IC50/nM)
# [7] = NIH3T3, cytotoxicity, MTT, 72 h
# T1 sequence (P00533 25-1210): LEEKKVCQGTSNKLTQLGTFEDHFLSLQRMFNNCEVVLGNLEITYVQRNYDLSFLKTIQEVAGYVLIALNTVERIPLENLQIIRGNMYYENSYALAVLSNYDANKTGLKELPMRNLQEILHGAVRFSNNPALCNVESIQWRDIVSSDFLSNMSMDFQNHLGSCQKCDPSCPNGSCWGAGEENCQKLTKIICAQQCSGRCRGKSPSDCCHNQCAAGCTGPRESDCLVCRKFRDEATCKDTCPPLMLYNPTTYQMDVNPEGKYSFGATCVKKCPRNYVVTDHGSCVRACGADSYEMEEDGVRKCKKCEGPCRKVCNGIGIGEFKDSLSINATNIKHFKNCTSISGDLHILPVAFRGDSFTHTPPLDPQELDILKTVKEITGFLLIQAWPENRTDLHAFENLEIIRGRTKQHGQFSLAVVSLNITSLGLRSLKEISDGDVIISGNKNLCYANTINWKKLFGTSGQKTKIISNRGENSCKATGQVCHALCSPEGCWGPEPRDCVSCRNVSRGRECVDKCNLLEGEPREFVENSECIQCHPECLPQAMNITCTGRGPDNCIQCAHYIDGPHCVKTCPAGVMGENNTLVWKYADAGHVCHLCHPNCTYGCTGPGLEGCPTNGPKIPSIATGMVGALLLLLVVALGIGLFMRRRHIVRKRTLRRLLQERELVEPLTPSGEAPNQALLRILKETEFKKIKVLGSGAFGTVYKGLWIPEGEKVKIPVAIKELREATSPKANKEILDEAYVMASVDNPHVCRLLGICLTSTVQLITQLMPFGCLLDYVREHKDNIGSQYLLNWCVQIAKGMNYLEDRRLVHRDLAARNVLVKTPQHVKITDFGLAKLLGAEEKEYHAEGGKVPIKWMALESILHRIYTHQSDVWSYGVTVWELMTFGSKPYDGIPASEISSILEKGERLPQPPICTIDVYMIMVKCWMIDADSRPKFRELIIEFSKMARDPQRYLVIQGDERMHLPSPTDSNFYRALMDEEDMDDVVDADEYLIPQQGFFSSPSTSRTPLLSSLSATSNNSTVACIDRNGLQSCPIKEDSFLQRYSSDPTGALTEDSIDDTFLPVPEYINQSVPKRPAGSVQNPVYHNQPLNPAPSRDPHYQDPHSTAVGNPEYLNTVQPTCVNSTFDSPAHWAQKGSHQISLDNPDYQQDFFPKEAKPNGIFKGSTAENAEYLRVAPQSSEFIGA
Compound,IC50 [3] [nM],"IC50 [2, 7] [nM]",also measured
"CN(C)C/C=C/C(=O)Nc1cc2c(Nc3ccc(F)c(Cl)c3)ncnc2cc1O[C@H]1CCOC1 [BIBW2992, Afatinib, reference compound]",,,"IC50 ([1]; NCI-H1975, 72 h): 88 nM; IC50 ([2]; NIH3T3, 72 h): 2750 nM"
"C=CC(=O)Nc1cc(Nc2ncc(Cl)c(OC3CCN(S(C)(=O)=O)CC3)n2)c(OC)cc1N(C)CCN(C)C [Compound J-3, N-(5-(5-chloro-4-(1-(methylsulfonyl)piperidine-4-oxy)pyrimidine-2-amino)-2-((2-(dimethylamino)ethyl)(methyl)amino)-4-methoxylphenyl) acrylamide]",38,> 10000,
C=CC(=O)Nc1cc(Nc2nccc(OC3CN(C(=O)c4ccccc4)C3)n2)c(OC)cc1N(C)CCN(C)C [Compound J-6],,> 10000,
"C=CC(=O)Nc1cc(Nc2nccc(OC3CN(C(=O)c4ccccc4)C3)n2)c(OC)cc1N1CCC(N(C)C)CC1 [Compound J-8, N-(5-(4-(1-benzoylaza-3-oxy)pyrimidine-2-amino)-2-(4-(dimethylamino)piperidine-1-yl)-4-methoxylphenyl)acrylamide]",,> 10000,
"C=CC(=O)Nc1cc(Nc2nccc(OC3CN(S(C)(=O)=O)C3)n2)c(OC)cc1N1CCC(N(C)C)CC1 [Compound J-10, N-(2-(4-(dimethylamino)piperidine-1-yl)-4-methoxy-5-(4-(1-(methylsulfonyl)azetidine-3-oxy)pyrimidine-2-amino)phenyl)acrylamide]",,> 10000,"IC50 ([1]; NCI-H1975, MTT, 72 h): 31 nM; Selective inhibitory activity against cells [IC50(A431 cell)/IC50(H1975 cell)] ([1]; MTT): 19.2; IC50 [4]: 596 nM"
"C=CC(=O)Nc1cc(Nc2nccc(OC3CN(c4cnc5ccccc5c4)C3)n2)c(OC)cc1N(C)CCN(C)C [Compound J-14, N-(2-((2-(dimethylamino)ethyl)(methyl)amino)-4-methoxy-5-(4-(1-(quinoline-3-yl)azetidine-3-oxy)pyrimidine-2-amino)phenyl)acrylamide]",,> 10000,
C=CC(=O)Nc1cc(Nc2nccc(OC3CN(c4cnc5c(cnn5C)c4)C3)n2)c(OC)cc1N(C)CCN(C)C [Compound J-15],,> 10000,IC50 [5]: 835 nM; Selective inhibitory activities against cell [IC50(A431 cell)/IC50(H1975 cell)] [6]: 11.1; IC50 [6]: 75 nM
C=CC(=O)Nc1cc(Nc2nccc(OC3CN(c4cnc5c(ccn5C)c4)C3)n2)c(OC)cc1N(C)CCN(C)C [Compound J-16],,> 10000,
C=CC(=O)Nc1cc(Nc2nccc(OC3CN(c4cnc5c(cnn5C)c4)C3)n2)c(OC)cc1N1CCC(N(C)C)CC1 [Compound J-19],,> 10000,
C=CC(=O)Nc1cc(Nc2nccc(OC3CN(C(=O)c4ccc(F)cc4)C3)n2)c(OC)cc1N(C)CCN(C)C [Compound J-21],,> 10000,
C=CC(=O)Nc1cc(Nc2nccc(OC3CN(C(=O)c4ccc(C)cc4)C3)n2)c(OC)cc1N(C)CCN(C)C [Compound J-22],,> 10000,
C=CC(=O)Nc1cc(Nc2nccc(OC3CN(C(C)=O)C3)n2)c(OC)cc1N(C)CCN(C)C [Compound J-23],32,> 10000,
C=CC(=O)Nc1cc(Nc2ncc(Cl)c(OCC3CN(C(C)=O)C3)n2)c(OC)cc1N1CCC(N(C)C)CC1 [Compound J-33],597,> 10000,
C=CC(=O)Nc1cc(Nc2ncc(Cl)c(O[C@H]3CCCN(S(C)(=O)=O)C3)n2)c(OC)cc1N1CCC(N(C)C)CC1 [Compound J-42],,> 10000,
C=CC(=O)Nc1cc(Nc2ncc(F)c(O[C@@H]3CCN(C(C)=O)C3)n2)c(OC)cc1N1CCC(N(C)C)CC1 [Compound J-49],259,,
"C=CC(=O)Nc1cc(Nc2nccc(OC3CN(CCF)C3)n2)c(OC)cc1N(C)CCN(C)C [Compound J-53, N-(2-((2-(dimethylamino)ethyl)(methyl)amino)-5-(4-(1-(2-fluroethyl)azetidine-3-oxy)pyrimidine-2-amino)-4-methoxyphenyl) acrylamide]",,> 10000,IC50 [5]: 225 nM; Selective inhibitory activities against cell [IC50(A431 cell)/IC50(H1975 cell)] [6]: 7.5; IC50 [6]: 30 nM
C=CC(=O)Nc1cc(Nc2ncc(Cl)c(OC3CN(CCF)C3)n2)c(OC)cc1N1CCC(N(C)C)CC1 [Compound J-54],376,> 10000,"IC50 ([1]; NCI-H1975, MTT, 72 h): 92 nM; Selective inhibitory activity against cells [IC50(A431 cell)/IC50(H1975 cell)] ([1]; MTT): 66.1; IC50 [4]: 6080 nM"
C=CC(=O)Nc1cc(Nc2ncc(Cl)c(NC3CN(C(C)=O)C3)n2)c(OC)cc1N1CCC(N(C)C)CC1 [Compound J-61],181,> 10000,
C=CC(=O)Nc1cc(Nc2ncc(Cl)c(N[C@@H]3CCCN(CCF)C3)n2)c(OC)cc1N1CCC(N(C)C)CC1 [Compound J-67],2,,
C=CC(=O)Nc1cc(Nc2ncc(Cl)c(N[C@H]3CCCN(CCF)C3)n2)c(OC)cc1N1CCC(N(C)C)CC1 [Compound J-68],41,7600,IC50 [5]: 388 nM; Selective inhibitory activities against cell [IC50(A431 cell)/IC50(H1975 cell)] [6]: 8.1; IC50 [6]: 48 nM
C=CC(=O)Nc1cc(Nc2ncc(Cl)c(NC3CC3)n2)c(OC)cc1N1CCC(N(C)C)CC1 [Compound J-74],216,,IC50 [5]: 2030 nM; Selective inhibitory activities against cell [IC50(A431 cell)/IC50(H1975 cell)] [6]: 7.7; IC50 [6]: 264 nM
C=CC(=O)Nc1cc(Nc2ncc(Cl)c(OC3CN(S(C)(=O)=O)C3)n2)ccc1N1CCC(N(C)C)CC1 [Compound J-76],14,,

# More lines, main results first:
IC50 [3] [nM],Compound,"IC50 [2, 7] [nM]",also measured
154,"C=CC(=O)Nc1cc(Nc2nccc(OC3CCN(C(=O)OC(C)(C)C)CC3)n2)c(OC)cc1N1CCC(N(C)C)CC1 [Compound J-2, tert-butyl 4-(2-(5-acrylamido-4-(4-(dimethylamino)piperidine-1-yl)-2-methoxyphenylamino)pyrimidine-4-oxy)piperidine-1-formate]",,
52,"C=CC(=O)Nc1cc(Nc2nccc(OC3CCN(S(C)(=O)=O)CC3)n2)c(OC)cc1N(C)CCN(C)C [Compound J-4, N-(2-((2-(dimethylamino)ethyl)(methyl)amino)-4-methoxy-5-(4-(1-(methylsulfonyl)piperidine-4-oxy)pyrimidine-2-amino)phenyl) acrylamide]",> 10000,
51,"C=CC(=O)Nc1cc(Nc2nccc(OC3CCN(S(C)(=O)=O)CC3)n2)c(OC)cc1N1CCC(N(C)C)CC1 [Compound J-5, N-(2-(4-(dimethylamino)piperidine-1-yl)-4-methoxy-5-(4-(1-(methylsulfonyl)piperidine-4-oxy)pyrimidine-2-amino)phenyl)acrylamide]",> 10000,
72,"C=CC(=O)Nc1cc(Nc2nccc(OC3CN(S(=O)(=O)c4ccccc4)C3)n2)c(OC)cc1N1CCC(N(C)C)CC1 [Compound J-9, N-(2-(4-(dimethylamino)piperidine-1-yl)-4-methoxy-5-(4-(1-(phenylsulfonyl)azetidine-3-oxy)pyrimidino)phenyl)acrylamide]",> 10000,
69,C=CC(=O)Nc1cc(Nc2nccc(OC3CN(C(C)=O)C3)n2)c(OC)cc1N1CCC(N(C)C)CC1 [Compound J-20],> 10000,"IC50 ([1]; NCI-H1975, MTT, 72 h): 138 nM; Selective inhibitory activity against cells [IC50(A431 cell)/IC50(H1975 cell)] ([1]; MTT): 38.8; IC50 [4]: 5350 nM"
119,C=CC(=O)Nc1cc(Nc2nccc(OC3CN(C(=O)c4ccc(C)cc4)C3)n2)c(OC)cc1N1CCC(N(C)C)CC1 [Compound J-24],6000,
11,C=CC(=O)Nc1cc(Nc2ncc(C#N)c(OC3CN(S(C)(=O)=O)C3)n2)c(OC)cc1N1CCC(N(C)C)CC1 [Compound J-32],> 10000,
113,C=CC(=O)Nc1cc(Nc2ncc(Cl)c(OCC3CN(S(C)(=O)=O)C3)n2)c(OC)cc1N1CCC(N(C)C)CC1 [Compound J-34],> 10000,
17,C=CC(=O)Nc1cc(Nc2nccc(OC3CCCN(S(C)(=O)=O)CC3)n2)c(OC)cc1N(C)CCN(C)C (stereo not drawn) [Compound J-36],> 10000,"IC50 ([1]; NCI-H1975, MTT, 72 h): 69 nM; Selective inhibitory activity against cells [IC50(A431 cell)/IC50(H1975 cell)] ([1]; MTT): 47.3; IC50 [4]: 3260 nM"
26,C=CC(=O)Nc1cc(Nc2ncc(F)c(O[C@@H]3CCN(S(C)(=O)=O)C3)n2)c(OC)cc1N1CCC(N(C)C)CC1 [Compound J-51],> 10000,IC50 [5]: 937 nM; Selective inhibitory activities against cell [IC50(A431 cell)/IC50(H1975 cell)] [6]: 15; IC50 [6]: 64 nM
47,C=CC(=O)Nc1cc(Nc2ncc(F)c(O[C@H]3CCN(S(C)(=O)=O)C3)n2)c(OC)cc1N1CCC(N(C)C)CC1 [Compound J-52],> 10000,IC50 [5]: 700 nM; Selective inhibitory activities against cell [IC50(A431 cell)/IC50(H1975 cell)] [6]: 15; IC50 [6]: 47 nM
6,C=CC(=O)Nc1cc(Nc2ncc(F)c(NC3CN(S(C)(=O)=O)C3)n2)c(OC)cc1N1CCC(N(C)C)CC1 [Compound J-62],> 10000,
105,C=CC(=O)Nc1cc(Nc2ncc(Cl)c(NC3CCN(S(C)(=O)=O)CC3)n2)c(OC)cc1N1CCC(N(C)C)CC1 [Compound J-69],> 10000,
24,C=CC(=O)Nc1cc(Nc2ncc(Cl)c(N(C)C3CN(S(C)(=O)=O)C3)n2)c(OC)cc1N1CCC(N(C)C)CC1 [Compound J-73],> 10000,IC50 [5]: 494 nM; Selective inhibitory activities against cell [IC50(A431 cell)/IC50(H1975 cell)] [6]: 19; IC50 [6]: 26 nM
463,C=CC(=O)Nc1cc(Nc2ncc(Cl)c(OC3(C)CN(S(C)(=O)=O)C3)n2)c(OC)cc1N1CCC(N(C)C)CC1 [Compound J-75],,IC50 [5]: > 10000 nM; Selective inhibitory activities against cell [IC50(A431 cell)/IC50(H1975 cell)] [6]: >22.8; IC50 [6]: 438 nM
